Data: ChEMBL document CHEMBL4028802, “DILIrank: the largest reference drug list ranked by the risk for developing drug-induced liver injury in humans” (Drug Discov Today, 2016)

What was measured:
Homo sapiens [1] = organism: Homo sapiens; experiment: Liver toxicity in human assessed as induction of drug-induced liver injury by measuring severity class index
Homo sapiens [2] = organism: Homo sapiens; experiment: Liver toxicity in human assessed as induction of drug-induced liver injury by measuring verified drug-induced liver injury concern status
Throughout, for DILI severity class: key of the grades not given here.

Structure (SMILES)	DILI_severity_class (Homo sapiens [1])	DILI_Concern (Homo sapiens [2])
CCn1cc(C(=O)O)c(=O)c2cc(F)c(N3CCNCC3)cc21 [NORFLOXACIN]	3	Less-Dili-Concern
CNCCC=C1c2ccccc2CCc2ccccc21 [NORTRIPTYLINE]	8	Most-Dili-Concern
C[C@@H](O)[C@@H]1NC(=O)[C@H](CCCCN)NC(=O)[C@@H](Cc2c[nH]c3ccccc23)NC(=O)[C@H](Cc2ccccc2)NC(=O)[C@@H](NC(=O)[C@H](N)Cc2ccccc2)CSSC[C@@H](C(=O)N[C@H](CO)[C@@H](C)O)NC1=O [OCTREOTIDE]	2	Less-Dili-Concern
CC1COc2c(N3CCN(C)CC3)c(F)cc3c(=O)c(C(=O)O)cn1c23 (stereo not given) [OFLOXACIN]	3	Less-Dili-Concern
Cc1cc2c(s1)Nc1ccccc1N=C2N1CCN(C)CC1 [OLANZAPINE]	3	Less-Dili-Concern
CCCc1nc(C(C)(C)O)c(C(=O)OCc2oc(=O)oc2C)n1Cc1ccc(-c2ccccc2-c2nnn[nH]2)cc1 [OLMESARTAN MEDOXOMIL]	4	Ambiguous-Dili-Concern
O=C(O)c1cc(/N=N/c2ccc(O)c(C(=O)O)c2)ccc1O [OLSALAZINE]	8	Less-Dili-Concern
COc1ccc2[nH]c([S+]([O-])Cc3ncc(C)c(OC)c3C)nc2c1 (stereo not given) [OMEPRAZOLE]	4	Less-Dili-Concern
Cc1nccn1CC1CCc2c(c3ccccc3n2C)C1=O (stereo not given) [ONDANSETRON]	7	Less-Dili-Concern
CCCCCCCCCCC[C@@H](C[C@@H]1OC(=O)[C@H]1CCCCCC)OC(=O)[C@H](CC(C)C)NC=O [ORLISTAT]	8	Most-Dili-Concern
Cc1ccccc1C(OCCN(C)C)c1ccccc1 (stereo not given) [ORPHENADRINE]	0	No-Dili-Concern
CCOC(=O)C1=C[C@@H](OC(CC)CC)[C@H](NC(C)=O)[C@@H](N)C1 [OSELTAMIVIR]	3	Ambiguous-Dili-Concern
Cc1onc(-c2ccccc2)c1C(=O)N[C@@H]1C(=O)N2[C@@H]1SC(C)(C)[C@@H]2C(=O)O [OXACILLIN]	3	Less-Dili-Concern
C[C@]12COC(=O)C[C@@H]1CC[C@@H]1[C@@H]2CC[C@@]2(C)[C@H]1CC[C@]2(C)O [OXANDROLONE]	8	Most-Dili-Concern
O=C(O)CCc1nc(-c2ccccc2)c(-c2ccccc2)o1 [OXAPROZIN]	3	Less-Dili-Concern
O=C1Nc2ccc(Cl)cc2C(c2ccccc2)=NC1O (stereo not given) [OXAZEPAM]	5	Ambiguous-Dili-Concern
NC(=O)N1c2ccccc2CC(=O)c2ccccc21 [OXCARBAZEPINE]	3	Less-Dili-Concern
O=C(O)CCCO [OXYBATE]	0	No-Dili-Concern
CCN(CC)CC#CCOC(=O)C(O)(c1ccccc1)C1CCCCC1 (stereo not given) [OXYBUTYNIN]	0	No-Dili-Concern
COc1ccc2c3c1O[C@H]1C(=O)CC[C@@]4(O)[C@@H](C2)N(C)CC[C@]314 [OXYCODONE]	0	No-Dili-Concern

Structure (SMILES)	DILI_severity_class (Homo sapiens [1])	DILI_Concern (Homo sapiens [2])
C[C@]12C/C(=C/O)C(=O)C[C@@H]1CC[C@@H]1[C@@H]2CC[C@@]2(C)[C@H]1CC[C@]2(C)O [OXYMETHOLONE]	7	Most-Dili-Concern
CN1CC[C@]23c4c5ccc(O)c4O[C@H]2C(=O)CC[C@@]3(O)[C@H]1C5 [OXYMORPHONE]	0	No-Dili-Concern
O=C1Nc2ccccc2C1(c1ccc(O)cc1)c1ccc(O)cc1 [OXYPHENISATINE]	8	Most-Dili-Concern
CN(C)[C@@H]1C(O)=C(C(N)=O)C(=O)[C@@]2(O)C(O)=C3C(=O)c4c(O)cccc4[C@@](C)(O)[C@H]3[C@H](O)[C@@H]12 [OXYTETRACYCLINE]	2	Ambiguous-Dili-Concern
CC[C@H](C)[C@@H]1NC(=O)[C@H](Cc2ccc(O)cc2)NC(=O)[C@@H](N)CSSC[C@@H](C(=O)N2CCC[C@H]2C(=O)N[C@@H](CC(C)C)C(=O)NCC(N)=O)NC(=O)[C@H](CC(N)=O)NC(=O)[C@H](CCC(N)=O)NC1=O [OXYTOCIN]	0	No-Dili-Concern
CC(=O)O[C@H]1C(=O)[C@@]2(C)[C@H]([C@H](OC(=O)c3ccccc3)[C@]3(O)C[C@H](OC(=O)[C@H](O)[C@@H](NC(=O)c4ccccc4)c4ccccc4)C(C)=C1C3(C)C)[C@]1(OC(C)=O)CO[C@@H]1C[C@@H]2O [PACLITAXEL]	4	Less-Dili-Concern
CONC(=N)c1ccc(-c2ccc(-c3ccc(C(=N)NOC)cc3)o2)cc1 [PAFURAMIDINE]	8	Most-Dili-Concern
Cc1nc2n(c(=O)c1CCN1CCC(c3noc4cc(F)ccc34)CC1)CCCC2O (stereo not given) [PALIPERIDONE]	0	No-Dili-Concern
O=C1c2cccc3c2[C@H](CCC3)CN1[C@@H]1CN2CCC1CC2 [PALONOSETRON]	4	Ambiguous-Dili-Concern
CC(C)(N)CO.Cn1c(=O)c2[nH]c(Br)nc2n(C)c1=O [PAMABROM]	0	No-Dili-Concern
NCCC(O)(P(=O)(O)O)P(=O)(O)O [PAMIDRONIC ACID]	3	Ambiguous-Dili-Concern
CC(=O)O[C@H]1C[C@@H]2CC[C@@H]3[C@H](CC[C@@]4(C)[C@H]3C[C@H]([N+]3(C)CCCCC3)[C@@H]4OC(C)=O)[C@@]2(C)C[C@@H]1[N+]1(C)CCCCC1 [PANCURONIUM]	0	No-Dili-Concern
COc1ccnc(C[S+]([O-])c2nc3ccc(OC(F)F)cc3[nH]2)c1OC (stereo not given) [PANTOPRAZOLE]	3	Less-Dili-Concern
COc1ccc(Cc2nccc3cc(OC)c(OC)cc23)cc1OC [PAPAVERINE]	5	Most-Dili-Concern
C[C@H](/C=C/[C@H](C)C(C)(C)O)[C@H]1CC[C@H]2/C(=C/C=C3C[C@@H](O)C[C@H](O)C3)CCC[C@]12C [PARICALCITOL]	3	Ambiguous-Dili-Concern
NC[C@@H]1O[C@H](O[C@H]2[C@@H](O)[C@H](O[C@@H]3[C@@H](O)[C@H](N)C[C@H](N)[C@H]3O[C@H]3O[C@H](CO)[C@@H](O)[C@H](O)[C@H]3N)O[C@@H]2CO)[C@H](N)[C@@H](O)[C@@H]1O [PAROMOMYCIN]	0	No-Dili-Concern
Fc1ccc([C@@H]2CCNC[C@H]2COc2ccc3c(c2)OCO3)cc1 [PAROXETINE]	8	Less-Dili-Concern
Nc1nc2[nH]cc(CCc3ccc(C(=O)N[C@@H](CCC(=O)O)C(=O)O)cc3)c2c(=O)[nH]1 [PEMETREXED]	3	Ambiguous-Dili-Concern
NC1=NC(=O)C(c2ccccc2)O1 (stereo not given) [PEMOLINE]	8	Most-Dili-Concern
CC(C)(C)NC[C@H](O)COc1ccccc1C1CCCC1 [PENBUTOLOL]	0	No-Dili-Concern
